The results in this text go back to patent US5679648A, “Methods for the treatment and prevention of fungal infections by administration of 3'-deoxypurine nucleosides” (The University Hospital, priority 1994, dated 1997).

Like-named read-outs stand apart in the source and are kept apart here.

One data set deals with C. albicans. Nature of the data set: MIC of 3'-deoxynucleosides in cell cultures (microtiter plates, 24 hours). Format: cell-based. The note with it: Candida albicans. As to the method:
(§1) Cell cultures of various organisms were established in microtiter plates and maintained for a period of 24 hours after the addition of a 3'-deoxynucleoside (3'-dA, 3'-dG, 3'-dC, 3'-dU) (Calbiochem; San Diego, Calif.; Fluka Chemical; Ronkonkoma, N.Y.; Pharmacia Biotech; Piscataway, N.J.) or amphotericin B in μg/ml (Sigma Chemical; St. Louis, Mo.) as control.

The next data set deals with A. fumigatus. The description is as above. To be noted: Aspergillus fumigatus. Format: cell-based. As to the method: as §1
A further data set concerns Rhizopus. The data set is described as above. Format: cell-based. As to the method: as §1
In another data set the test system is C. neoformans. Described as above. Format: cell-based. The note with it: Cryptococcus neoformans. As to the method: as §1
Another data set relates to C. tropicalis. Described as above. The note with it: Candida tropicalis. Format: cell-based. As to the method: as §1
The test system of data set [1] is Candida albicans. Nature of the data set: Time to reach LD50 in Candida albicans infected mice. Format: in vivo. The note with it: ICR mice, 10^6 cfu C. albicans; 10 days i.p.: 3'-deoxyadenosine 1.5, deoxycoformycin 0.4, amphotericin B 1.0 mg/kg/day; control 6. As to the method: Halen Sprague Dawley ICR mice were injected with approximately 10^6 cfu Candida albicans and treated for 10 days with the following agents: 3'-deoxyadenosine (Sigma Chemical; St. Louis, Mo.) at 1.5 mg/kg/day i.p., deoxycoformycin (Sigma Chemical; St. Louis, Mo.) at 0.4 mg/kg/day i.p., amphotericin B (Sigma Chemical; St. Louis, Mo.) at 1.0 mg/kg/day i.p. Time in days to reach LD50 is shown in Table 4.

The test system of data set [2] is Candida albicans. Briefly: Mortality in Candida albicans infected mice. The note with it: ICR mice, 10^6 cfu C. albicans; for Survival After 25 Days: 10 days i.p.: 3'-deoxyadenosine 1.5, deoxycoformycin 0.4, amphotericin B 1.0 mg/kg/day, n=10, control 40%; for Survival After 15 Days: second experiment, 10 days i.p., same doses, n=8, control 0%. Format: in vivo. As to the method:
Halen Sprague Dawley ICR mice were injected is with approximately 10^6 cfu of Candida albicans. Twenty-four hours after injection, mice were treated for 10 days with the indicated agents: 3'-deoxyadenosine (Sigma Chemical; St. Louis, Mo.) at 1.5 mg/kg/day i.p., deoxycoformycin (Sigma Chemical; St. Louis, Mo.) at 0.4 mg/kg/day i.p., amphotericin B (Sigma Chemical; St. Louis, Mo.) at 1.0 mg/kg/day i.p. Survival after 25 days is shown in Tables 2 and 3.

The subject of a further data set is protein kinase C (PK-C). Nature of the data set: PK-C activity in TdT-positive and TdT-negative cell lines after exposure. Format: cell-based. As to the method:
(§2) Cell lines were maintained in FCS/DMEM (GIBCO/BRL; Grand Island, N.Y.) at 37° C. with 5% CO2 and treated with cordycepin, coformycin or cordycepin plus coformycin, or remain untreated as controls. […] Since apoptosis in normal TdT-positive thymocytes is stimulated by protein kinase A (PK-A) activity, and inhibited by protein kinase C (PK-C) activity, PK-A and PK-C activities were measured in TdT-positive and TdT-negative cell lines after exposure to cordycepin.

A further data set relates to protein kinase A (PK-A). Nature of the data set: PK-A activity in TdT-positive and TdT-negative cell lines after exposure. Format: cell-based. As to the method: as §2
A further data set concerns HPB-ALL. Briefly: Cytotoxicity to neoplastic cells in tissue culture. Format: cell-based. The note with it: HPB-ALL (TdT-positive), in the presence of coformycin; read-out: cytotoxic IC50. As to the method: (§3) Cell lines were maintained in FCS/DMEM (GIBCO/BRL; Grand Island, N.Y.) at 37° C. with 5% CO2 and treated with cordycepin, coformycin or cordycepin plus coformycin, or remain untreated as controls. In the presence of coformycin, cordycepin was specifically cytotoxic at IC50 of less than 0.5 μM for the TdT-positive cells NALM-6, HPB-ALL, MOLT-4, CEM and 8402 cells. […] The earliest manifestations of cytotoxic damage by cordycepin in TdT (terminal deoxynudeotidyl tranferase)-positive cells was the emergence of classic features of apoptosis such as membrane blebbing, volume loss, chromatin clumping and inter-nucleosomal DNA digestion into 180 base pair (bp) multiples. In contrast, the cytotoxic damage seen when TdT-negative cells are exposed to high levels (greater than 5.0 μM) of cordycepin is associated with random DNA breakdown and necrosis. Since apoptosis in normal TdT-positive thymocytes is stimulated by protein kinase A (PK-A) activity, and inhibited by protein kinase C (PK-C) activity, PK-A and PK-C activities were measured in TdT-positive and TdT-negative cell lines after exposure to cordycepin.

The test system of a further data set is 8402 cells. Briefly: Cytotoxicity to neoplastic cells in tissue culture. Format: cell-based. The note with it: 8402 (TdT-positive), in the presence of coformycin; read-out: cytotoxic IC50. As to the method:
as §3

The subject of the next data set is NALM-6. Nature of the data set: Cytotoxicity to neoplastic cells in tissue culture. Format: cell-based. The note with it: NALM-6 (TdT-positive), in the presence of coformycin; read-out: cytotoxic IC50. As to the method:
as §3

The test system of the next data set is CEM. Nature of the data set: Cytotoxicity to neoplastic cells in tissue culture. Format: cell-based. To be noted: CEM (TdT-positive), in the presence of coformycin; read-out: cytotoxic IC50. As to the method: as §3
In the next data set the test system is MOLT-4. Briefly: Cytotoxicity to neoplastic cells in tissue culture. Format: cell-based. The note with it: MOLT-4 (TdT-positive), in the presence of coformycin; read-out: cytotoxic IC50. As to the method: as §3
[3] abbreviates: C. albicans, 24 hours, read-out: MIC.
[4] abbreviates: A. fumigatus, 24 hours, read-out: MIC.
Where [5] appears, read: C. neoformans, 24 hours, read-out: MIC.
The mark [6] stands for this setting: C. tropicalis, 24 hours, read-out: MIC.

A word on the MIC: it is the smallest concentration in the dilution series that meets the test's criterion for growth inhibition. A word on the IC50: it is the concentration at which inhibition is half-maximal.

`O=c1ccn([C@@H]2O[C@H](CO)C[C@H]2O)c(=O)[nH]1` [3'-dU]: the MIC was over 20 µM with C. albicans (setting [3]); over 20 µM in the data set with A. fumigatus (setting [4]); over 20 µM in the data set with Rhizopus (24 hours, read-out: MIC); over 20 µM with C. neoformans (setting [5]); over 20 µM in the data set with C. tropicalis (setting [6]).
Turning to `OC[C@H]1O[C@@H](n2cnc3c2NC=NC[C@H]3O)C[C@@H]1O` [deoxycoformycin], in the data set on Candida albicans [1], the “Days to Reach LD50” value is on record as 5 days. For the same compound, in the data set on Candida albicans [2], the “Survival After 25 Days” value came out at 30% and the “Survival After 15 Days” value is on record as 25.0%.
Regarding `Nc1nc2c(ncn2[C@@H]2O[C@H](CO)C[C@H]2O)c(=O)[nH]1` [3'-dG], the minimal inhibitory concentration (MIC) in the data set on C. albicans (setting [3]) was over 20 µM; in the data set with A. fumigatus (setting [4]), over 20 µM; in the data set with Rhizopus (24 hours, read-out: MIC), over 20 µM; in the data set on C. neoformans (setting [5]), over 20 µM; in the data set on C. tropicalis (setting [6]), over 20 µM.
With `Nc1ncnc2c1ncn2[C@@H]1O[C@H](CO)C[C@H]1O` [3'-dA, 3'-deoxyadenosine], the minimal inhibitory concentration (MIC) in the data set on C. albicans (setting [3]) was 20 µM; in the data set with A. fumigatus (setting [4]), 5 µM; with Rhizopus (24 hours, read-out: MIC), over 20 µM; in the data set on C. neoformans (setting [5]), 20 µM; with C. tropicalis (setting [6]), 20 µM. Further, the PK-C activity change entry in the data set on protein kinase C (PK-C) (TdT-negative cells) and in the data set with protein kinase C (PK-C) (TdT-positive cells) was “unchanged” throughout. Also, the PK-A activity change entry in the data set on protein kinase A (PK-A) (TdT-negative cells) is on record as “unchanged”. The PK-A activity increase in the data set with protein kinase A (PK-A) (TdT-positive cells, within 2 hours of exposure) was 8-10 fold. In addition, the “Days to Reach LD50” value in the data set on Candida albicans [1] came out at 9.5 days. Further, the “Survival After 25 Days” value in the data set on Candida albicans [2] came to 30%. In addition, in the data set with Candida albicans [2], the “Survival After 15 Days” value is listed as 37.5%. Besides, the half-inhibitory concentration (IC50) in the data set with HPB-ALL, with 8402 cells, in the data set with NALM-6, in the data set on CEM and in the data set on MOLT-4 was under 500 nM throughout.
In the case of `Nc1ccn([C@@H]2O[C@H](CO)C[C@H]2O)c(=O)n1` [3'-dC], the minimum inhibitory concentration (MIC) with C. albicans (setting [3]) is over 20 µM; in the data set with A. fumigatus (setting [4]), 20 µM; in the data set with Rhizopus (24 hours, read-out: MIC), over 20 µM; with C. neoformans (setting [5]) it was over 20 µM; in the data set on C. tropicalis (setting [6]) it was over 20 µM.
Take `C[C@@H]1[C@H](O)[C@@H](C)/C=C/C=C/C=C/C=C/C=C/C=C/C=C/[C@H](O[C@@H]2O[C@H](C)[C@@H](O)[C@H](N)[C@@H]2O)C[C@@H]2O[C@](O)(C[C@@H](O)C[C@@H](O)[C@H](O)CC[C@@H](O)C[C@@H](O)CC(=O)O[C@H]1C)C[C@H](O)[C@H]2C(=O)O` [Amphotericin B, amphotericin B]: the MIC in the data set with C. albicans (24 h) was under 0.6 µg/mL; in the data set on A. fumigatus (24 h), 1.25 µg/mL; in the data set on Rhizopus (24 h), 2.5 µg/mL; in the data set on C. neoformans (24 h) it was 2.5 µg/mL; in the data set with C. tropicalis (24 h) it was 1.25 µg/mL. Moreover, the “Days to Reach LD50” value with Candida albicans [1] is reported as over 30 days. The “Survival After 25 Days” value in the data set with Candida albicans [2] was determined as 90%. The “Survival After 15 Days” value with Candida albicans [2] was 50.0%.
